Earlier results in patent publication US20060009468A1, “Method for treatment of cancer” (priority 2004, published 2006).

How the values were obtained:
MIA PaCa-2 cells = details: after 72 hrs of exposure
PANC-1 cells = details: after 72 hrs of exposure

SMILES: N=C(N)NOCC[C@H](N)C(=O)O [L-canavanine, L-Canavanine]
- increase of the percentage of cells in the radiosensitive G2/M phase of the cell cycle, compared to untreated cells (MIA PaCa-2 cells): 4 fold
- increase of the percentage of cells in the radiosensitive G2/M phase of the cell cycle, compared to untreated cells (PANC-1 cells): 6 fold
